The values below come from patent US20190183927A1, “MEDICAL AND NUTRITIONAL COMPOSITIONS AND METHODS OF USE” (Sulfilatec, Inc., priority 2016, published 2019).

Data set [1] deals with salt sensitive Dahl rats. The experiment in a line: Survival of salt sensitive Dahl rats on high salt (8% NaCl) diet with or without NaBr, 10 week study. The class given is in vivo, rat. Here is the method:
Control rats received AIN76A without supplemental chloride or bromide. 9 rats per study arm.
Dahl rats were administered a base diet of AIN76A with 8% NaCl, while a parallel arm was administered AIN76A with 8% NaCl and 300 mg of NaBr per kg of food. Mortality events were counted over the 10 week study.

The subject of data set [2] is spontaneously hypertensive rat (SHR). The experiment in a line: 10 week daily dietary Br^− administration in SHR disease model (heart weight, survival, urinary protein). The class given is in vivo. How it is done:
(FIG. 5 A-B) Heart and kidney weights from 10 week repeat dosing study in SHR model. Br^− administered daily via diet, with AIN-76a as base diet. WKY served as genetic control. Both kidneys per animal weighed together. […] (FIG. 5C-D) Heart and kidney weights from panels A-B normalized to body weight. […] (FIG. 5E) Rats were administered a diet of AIN76A with or without 10 mg NaBr per kg feed (“SHR” and “SHR+Br” study arms, […]). Survival probability was calculated between SHR rats receiving dietary Br— and SHR rats receiving AIN76A control diet over a 10 week study period. As a second control, Wistar Kyoto (WKY) rats were fed AIN76A control diet over the same period. 8 rats per study arm.
Eight SHR animals received AIN76A diet for 10 weeks while 8 SHR animals received AIN76A supplemented with 10 mg NaBr/kg diet.

Data set [3] has the same test system. The data set can be described thus: Cardiac interstitial fibrosis, Masson's Trichrome staining, SHR. Type of data set: in vivo. Conditions: 10 mg NaBr per kg AIN-76a, 10 weeks, p<0.0001. How it is done:
(§1) AIN-76A was base diet for all animals. […] Fibrosis determined from 5 μm tissue sections stained with Masson's Trichrome. […] Approximately 25-30 images were collected and processed per animal.
Following conclusion of the in vivo study, rat hearts were formalin-fixed, paraffin-embedded, and 5 μm-thick sections were obtained for histochemical analysis.

The test system of data set [4] is salt sensitive Dahl rats. The data set can be described thus: Cardiac interstitial fibrosis, Masson's Trichrome staining, Dahl rats on high salt diet. The class given is in vivo, rat. To be noted: 300 mg NaBr per kg AIN-76a+8% NaCl, 10 weeks, p<0.0001. How it is done: as §1
The subject of data set [5] is spontaneously hypertensive rat (SHR). The data set can be described thus: Blood pressure and heart rate (tail cuff) after single IP administration of NaBr in SHR. Type of data set: in vivo. To be noted: single IP 154.5 μg NaBr per kg. Here is the method:
(A) In 10 week-old male SHR, single administration of Br^− reduced systolic and diastolic blood pressures compared to saline control. […] (C-D) Measured values for systolic (C) and diastolic (D) blood pressure, denoting statistical significance where achieved. 154.5 μg NaBr per kg rat body weight injected via IP. n=8 in Br Treatment group, =5 in saline control. BP & HR measured via tail cuff. *:p<0.05, T test.
(§2) The inventors next asked whether Br^− exerts any short-term activity in addition to the improved cardiac fibrosis noted after 10 weeks administration. Returning to the SHR preclinical model of disease, the inventors specifically asked whether Br^− administration modulates certain biomarkers associated with cardiovascular disease at one day post-administration. To this end, Br^− was administered to 8 SHR via intraperitoneal (IP) injection with an estimated 0.154 μg NaBr per gram body weight. For control, 8 SHR were administered saline via IP injection containing an estimated 4 ng NaBr per gram body weight. […] Moreover, the inventors believe that Br^− achieves its cardiovascular and renal therapeutic activities in part via modulation of natriuretic peptide signaling.

Data set [6] deals with brain natriuretic peptide (BNP). The experiment in a line: Serum BNP by ELISA after single IP administration of NaBr in SHR. Type of data set: in vivo, rat. Conditions: single IP 154.5 μg NaBr per kg, one day post-administration, p<0.05. Here is the method:
154.5 μg NaBr per kg rat body weight injected via IP. n=8 in Br Treatment group, =5 in saline control. Baseline serum collection occurred two days prior to treatment. *: p<0.05, T test.
as §2
For orientation: ELISA stands for enzyme-linked immunosorbent assay.

The conditions of data set [7]: in vivo; cited from earlier work.
For data set [8] the following is noted: dogs that do not respond to an initial course of Br^− treatment; cited from earlier work.
The conditions of data set [9]: humans, in some circumstances, due to renal reabsorption; cited from earlier work.
A short description of data set [10]: Serum Br^− concentration in Dahl rats after 10 weeks on diet (mass spectrometry).
Method: (FIG. 2A) Serum Br^− concentrations from rats fed a daily diet over 10 weeks of “AIN-76A”, “AIN-76A+8% NaCl”, “AIN-76A+Br”, or “AIN-76A+8% NaCl+Br”. […] The two diets containing 8% NaCl (eg. “AIN-76A+8% NaCl” and “AIN-76A+8% NaCl+Br”) were fed to Dahl rats while the remaining two diets (eg. “AIN-76A” and “AIN-76A+Br”) were fed to SHR, as indicated in panel A. Serum Br^− measurements were determined using mass spectrometry.
Thus, Dahl rats were fed a diet supplemented with 8% NaCl (AIN76A base diet) over the course of 10 weeks.
To test the invention, another group of Dahl rats were administered AIN76A supplemented with 8% NaCl and 300 mg NaBr per kg of food. Considering that the rat body weights increased from around 300 g to around 400 g over the course of the study, and assuming that the rats ate a relatively constant amount of 25 g of food per day, the daily consumption of Br^− ranged from approximately 14.6 to 19.4 mg Br^− per kg body weight, in accordance with the invention.
Data set [11] can be described thus: Serum Br^− concentration in spontaneously hypertensive rats (SHR) after 10 weeks on diet, safety.
Method: (FIG. 2A) Serum Br^− concentrations from rats fed a daily diet over 10 weeks of “AIN-76A”, “AIN-76A+8% NaCl”, “AIN-76A+Br”, or “AIN-76A+8% NaCl+Br”. Salt sensitive Dahl rats as well as Spontaneously Hypertensive Rats (SHR) were used in these studies. The two diets containing 8% NaCl (eg. “AIN-76A+8% NaCl” and “AIN-76A+8% NaCl+Br”) were fed to Dahl rats while the remaining two diets (eg. “AIN-76A” and “AIN-76A+Br”) were fed to SHR, as indicated in panel A. Serum Br^− measurements were determined using mass spectrometry.
Rats were administered 10 mg of NaBr per kg of AIN76A diet for 10 weeks. At the end of the study, serum Br^− levels in Br-treated rats were compared to serum Br^− levels in SHR on AIN76A as well as Wistar rats on AIN76A.
Data set [12] concerns acute heart failure patients. Conditions: cited from earlier work.
Where [13] appears, read: acute decompensated heart failure (Sackner-Bernstein et al. 2005).

Entries after “also recorded” stand apart in the source; their conditions may differ. Where only a bound is given, the exact number is not on record here.

`[Br-].[Na+]` [Br^−, sodium bromide]: the “survival compared to High Salt alone (log rank test)” value with salt sensitive Dahl rats [1] (9 rats per arm, p<0.001) is listed as “significantly improved survival”. Besides, the survival probability in the data set on salt sensitive Dahl rats [1] (AIN76A+8% NaCl with or without 300 mg NaBr per kg feed, 10 weeks) was found to be 67%. Moreover, the “heart weight (absolute)” value in [2] (10 mg NaBr per kg AIN-76a, 10 weeks, vs SHR on AIN-76a alone, p<0.05) was “significantly reduced; also recorded: Statistically significant reduction”. The “treatment-induced mortality or electrolyte disturbances” value in [2] (10 mg NaBr/kg diet, 10 weeks) is given as “No treatment-induced mortality or electrolyte disturbances”. Further, the “survival probability among groups” value in data set [2] (10 week study, 8 rats per arm) was “no statistical difference in survival”. Also, the “heart weight normalized to body weight” value in data set [2] (10 weeks) is listed as “this trend was preserved; also recorded: Trends observed in absolute weights are preserved”. For the same compound, the “urinary microprotein/creatinine ratio (urinary protein levels)” value in data set [2] (after one day on study diet, persisted to end of study) is recorded as “significantly lower; also recorded: significantly reduced”. For the same compound, the “cardiac fibrosis (Masson's Trichrome blue staining)” value is “dramatic reduction in blue staining; also recorded: less cardiac fibrosis” in [3] and “less cardiac fibrosis” with salt sensitive Dahl rats [4]. In addition, the systolic blood pressure entry in [5] (one day post-administration, vs saline control) is reported as “statistically significant reductions; also recorded: reduced”. In addition, the heart rate entry in [5] (p=0.052) was “possible reduction”. Moreover, in data set [5] (vs saline control), the diastolic blood pressure entry is given as “reduced”. The “serum concentration of BNP peptide” value in data set [6] is listed as “statistically significant increase; also recorded: significantly modulated”. The “circulating Br^− level at which the anti-epilepsy effect occurs” value in data set [7] is greater than 6 mM. The “therapeutic serum Br^− for sedative effect” value in [8] is reported as “above 25 mM”. For the same compound, the half-life – broadly, how long it takes for the measured level to halve – in [9] was no less than 170 h. For the same compound, the “mean serum Br^−” value is 246.50 µM in data set [10] (10 weeks on diet, end of study) and 281.7 µM in data set [11] (10 mg NaBr per kg AIN76A diet, 10 weeks). In addition, the “toxicity assessment of serum Br^− concentrations” value in data set [10] (daily diet over 10 weeks) is “well below those levels required to induce bromide-associated toxicity”; in data set [11] (daily diet over 10 weeks), “below the toxicity threshold”.

Take `CC[C@H](C)[C@@H]1NC(=O)[C@H](CCCNC(=N)N)NC(=O)[C@H](CC(=O)O)NC(=O)[C@H](CCSC)NC(=O)[C@H](CCCNC(=N)N)NC(=O)CNC(=O)CNC(=O)[C@H](Cc2ccccc2)NC(=O)[C@@H](NC(=O)[C@H](CO)NC(=O)[C@H](CO)NC(=O)[C@H](CCCNC(=N)N)NC(=O)[C@H](CCCNC(=N)N)NC(=O)[C@H](CC(C)C)NC(=O)[C@@H](N)CO)CSSC[C@@H](C(=O)N[C@@H](CC(N)=O)C(=O)N[C@@H](CO)C(=O)N[C@@H](Cc2ccccc2)C(=O)N[C@@H](CCCNC(=N)N)C(=O)N[C@@H](Cc2ccc(O)cc2)C(=O)O)NC(=O)CNC(=O)[C@H](CC(C)C)NC(=O)CNC(=O)[C@H](CO)NC(=O)[C@H](CCC(N)=O)NC(=O)[C@H](C)NC(=O)CNC1=O` [carperitide]: in [12] (acute heart failure patients in Japan (Matsue et al. 2015)), the in-hospital mortality result is reported as “increased in-hospital mortality”.

nesiritide: in [12] (setting [13]), the mortality result is on record as “increased mortality” and the renal function entry is given as “worsening renal function”.
